Measured values published in patent US9181172B2, “Rhein conjugates, preparation method thereof and their uses in producing medicines for treating diabetic nephrosis, intestinal adhesion and osteoarthritis” (priority 2005, dated 2015).
Where a name gives a salt, the structure may show the parent alone.

What was measured:
Type in all cases: in vivo
rats [1] = assay: Carrageenan-induced acute pleurisy exudation and leukoplania in rats; details: intraperitoneal 20 mg/kg, four hours after carrageenan
Experimental: Forty male rats of 200±20 g weight were selected and divided into five groups, namely, model control group, indomethacin group, rhein sodium group, rhein glucosamine large dose group and small dose group. Eight rats for each group. The rats were administered with medicines by intraperitoneal administration, one hour later, the rats were induced with acute pleurisy by carrageenan according to the method in the literature [Xu Shuyun, Methodology in Pharmacological Experiment (the 3rd version): 916]. Four hours later, the rats were killed and the volume of pleural effusion and total white cell count were measured.

[2] = test system: rabbits' ear marginal veins; assay: Safety of hydro-acupuncture injection: irritation of rabbits' ear marginal vein; details: rabbit, in vivo
Source text: In rabbits' ear marginal vein aseptic operation, rhein sodium salt, rhein arginine conjugates and 0.9% sodium chloride injection liquid were slowly filled into the veins respectively every two days for three consecutive times.

[3] = test system: obese rats of high-fat and high-sugar diet; assay: Body weight of obese rats of high-fat and high-sugar diet; details: Group E
Source text: Group A: conventional diet, 4 weeks later, started to carry on intragastric administration, and the same volume of distilled water as the control, once daily, three weeks in succession.
Group B: high-fat high-sugar diet, 4 weeks later, started to carry on intragastric administration, and the same volume of distilled water as the model control, once daily, three weeks in succession.
Group C: high-fat high-sugar diet, 4 weeks later, started to carry on intragastric administration of rhein lysine conjugates [dose: 90 mg/kg (0.209 mmol/kg), prepared by distilled water], once daily, three weeks in succession.
Group D: high-fat high-sugar diet, 4 weeks later, started to carry on intragastric administration of rhein lysine conjugates [dose: 45 mg/kg (0.105 mmol/kg), prepared by distilled water], once daily, three weeks in succession.
Group E: high-fat high-sugar diet, 4 weeks later, started to carry on intragastric administration of rhein sodium [dose: 65 mg/kg (0.212 mmol/kg), prepared by distilled water], once daily, three weeks in succession.

rats [4] = assay: Intestinal adhesion in rats; details: 6 mg/kg once a day, 7th day
Experimental: Rats were fasted for 12 h and models were built according to the methods in the literature [Xu Shuyun, Methodology in Pharmacological Experiment (the 3rd version): 1335]. The rats were randomly divided into five groups, namely, model control group, dexamethasone group, rhein sodium group, rhein glucosamine large dose group and low dose group. Each group included 12 rats. […] The rats of the model group were administered with the same volume of NS, while the rats of the positive control group were administered with dexamethasone, administered once every two days, dose: 10 mg/kg. The administration volume was the same as the treatment group. The rats were killed on the 7th day and carried on laparotomy. Adhesion degree was classified and scored respectively. The classification and score of the observed index-adhesion degree can refer to the five-grade classification method prepared by Nair, and determine the classification standard, see Schedule 13. Intestinal adhesion classification adopts Ridit analysis. The test results are as follows (Table 14): […]

rats [5] = assay: Formation of cotton ball granuloma in rats (Example 59 Test 2); details: 12 mg/kg intragastric, two weeks
Experimental: Rats were randomly divided into five groups (model control group, indomethacin group, rhein glucosamine large dose group and low dose group and rhein sodium group). Each group included 10 rats, and built models according to the method in the literature [Xu Shuyun, Methodology in Pharmacological Experiment (the 3rd version): 918]. The rats were administered by medicines from the day when starting the operation. […] The rats were killed in two weeks, and tests were performed according to the methods in the literature, the net weight of granulation was calculated, and t test was used for the intergroup comparison.

O=C(O)c1cc(O)c2c(c1)C(=O)c1cccc(O)c1C2=O [Rhein sodium salt, rhein sodium salt]
Volume of exudation fluid (rats [1]): 0.33 ± 0.12
WBC (rats [1]): 3.98 ± 1.64 ×109/L
biopsy of rabbits' ear marginal vein [2]: slight with partial endothelial cell necrosis and abscission, and inflammatory response of the surrounding tissues
irritation on rabbits' ear marginal veins [2]: has irritation
The body weight increased 7 weeks after high-sugar high-fat diet ([3]; after three weeks ig 65 mg/kg once daily): 17.1 ± 4.1 g
The body weight increased 4 weeks after high-sugar high-fat diet ([3]; before start of ig 65 mg/kg): 15.8 ± 4.3 g
Rating of adhesion degree 0 (rats [4]; number of 12 rats with completely no adhesion): 1
Rating of adhesion degree III (rats [4]; number of 12 rats with more than two adhering zones): 3
Rating of adhesion degree I (rats [4]; number of 12 rats with one adhering zone): 4
Rating of adhesion degree IV (rats [4]; number of 12 rats with organs adhering to abdominal wall directly): 2
Rating of adhesion degree II (rats [4]; number of 12 rats with two adhering zones): 2
net weight of granulation (rats [5]): 15.87 ± 3.31 mg
